Assay results: patent US20250230193A1, “CYCLIC COMPOUND HAVING SELECTIVE KRAS INHIBITORY EFFECT ON HRAS AND NRAS” (CHUGAI SEIYAKU KABUSHIKI KAISHA, priority 2022, published 2025)
Like-named read-outs stand apart in the source and are kept apart here. *1 amine or outer side, *2 acyl side, *3 side chain or, on linkers, in order; H or OH if unused. Where a SMILES comes first, the peptide text is derived from it. Bridges are numbered along the chain shown (N, C = ends). [ ]: non-standard residue; d: D form. The star is where a group is joined. X6 = CC(C)(C)CCN([C@@H](Cc1ccc(C(F)(F)F)cc1)C(=O)[*:2])[*:1]; hPhe(3-Cl-4-CF3) = N[C@@H](CCc1ccc(C(F)(F)F)c(Cl)c1)C(=O)O; NMeGly(cPent) = CN[C@H](C(=O)O)C1CCCC1; NMeD = CN[C@@H](CC(=O)O)C(=O)O; NMeL = CN[C@@H](CC(C)C)C(=O)O; Morpholide = C1CN(*)CCO1; Ac5c = NC1(C(=O)O)CCCC1; Sar = CNCC(=O)O

Legend:
[1] = system: human lung cancer strain NCI-H441
[2] = molecular target: GDP-bound NRAS wild-type protein (Homo sapiens, UniProt P01111); assay: Binding to NRAS by surface plasmon resonance (SPR), Single Cycle Kinetics; settings: SPR; for NRAS/KRAS (ratio of KD value for GDP-bound NRAS wild-type protein to KD value for KRAS): KD ratio class
[3] = molecular target: GDP-bound HRAS wild-type protein (Homo sapiens, UniProt P01112); assay: Binding to HRAS by surface plasmon resonance (SPR), Single Cycle Kinetics; settings: SPR; for HRAS/KRAS (ratio of KD value for GDP-bound HRAS wild-type protein to KD value for KRAS): KD ratio class
[4] = system: human lung cancer strain NCI-H441; assay: cells; settings: NCI-H441, 96 h, read-out: NCI-H441 IC50 (nM)
[5] = read-out: NCI-H441 IC50, NCI-H441 cells, 4 days, CellTiter-Glo
[6] = KD ratio, GDP-bound NRAS wild-type vs GDP-bound KRAS wild-type
[7] = KD ratio, GDP-bound HRAS wild-type vs GDP-bound KRAS wild-type

GDP-bound HRAS wild-type protein, sequence (P01112 whole entry): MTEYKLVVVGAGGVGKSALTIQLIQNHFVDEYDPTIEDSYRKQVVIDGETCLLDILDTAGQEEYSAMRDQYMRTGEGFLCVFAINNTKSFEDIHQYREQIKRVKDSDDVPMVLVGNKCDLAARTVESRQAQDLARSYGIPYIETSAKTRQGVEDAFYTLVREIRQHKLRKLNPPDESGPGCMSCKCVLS
GDP-bound NRAS wild-type protein, sequence (P01111 whole entry): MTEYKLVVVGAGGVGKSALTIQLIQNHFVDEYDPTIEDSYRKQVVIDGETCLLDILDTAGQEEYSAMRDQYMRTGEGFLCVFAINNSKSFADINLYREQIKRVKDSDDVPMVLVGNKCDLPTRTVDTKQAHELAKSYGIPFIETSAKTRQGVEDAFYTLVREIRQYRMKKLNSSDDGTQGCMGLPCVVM

Row | SMILES | IC50 [1] [nM] | IC50 [4] [nM] | NRAS/KRAS (ratio of KD value for GDP-bound NRAS wild-type protein to KD value for KRAS) [2] | HRAS/KRAS (ratio of KD value for GDP-bound HRAS wild-type protein to KD value for KRAS) [3] | also measured
1 | CCC(CC)[C@H]1C(=O)N(C)[C@H](C(=O)N2CCCCC2)CC(=O)N(C)[C@H]2CCC/C=C/c3ccc(cc3)C[C@@H](C(=O)N(C)CC(=O)N[C@@H](CCc3ccc(Cl)c(Cl)c3)C(=O)N3CCC[C@H]3C(=O)NC3(CC(C)(C)C3)C(=O)N1C)N1CC/C=C\C[C@@H](C1=O)N(C)C(=O)CN(C)C(=O)[C@H]([C@@H](C)CC)NC2=O [PP3055] | – | – | – | – | IC50 [1, 5]: 69.2 nM; NRAS/KRAS (ratio of KD value with respect to GDP-bound NRAS wild-type protein to KD value with respect to KRAS) ([2]; KD ratio NRAS/KRAS, GDP-bound wild-type proteins): AA (a compound having 20 or more is denoted as AA); HRAS/KRAS (ratio of KD value with respect to GDP-bound HRAS wild-type protein to KD value with respect to KRAS) ([3]; KD ratio HRAS/KRAS, GDP-bound wild-type proteins): A (a compound having 10 or more and less than 20 is denoted as A)
2 | CC[C@H](C)[C@@H]1NC(=O)[C@H](CC(C)C)N(C)C(=O)C[C@@H](C)N(C)C(=O)[C@H](C2CCCC2)N(C)C(=O)C2(CCC2)NC(=O)[C@@H]2CCCN2C(=O)[C@H](CCc2cc(F)c(C(F)(F)F)c(F)c2)NC(=O)CN(C)C(=O)[C@H](Cc2ccc(C(F)(F)F)cc2)N2CC/C=C\C[C@@H](C2=O)N(C)C(=O)CN(C)C1=O [PP1099] | 68.1 | – | – | – | NRAS/KRAS (ratio of KD value with respect to NRAS to KD value with respect to KRAS) [2, 6]: B (a compound having 3 or more and less than 10 is denoted as B); HRAS/KRAS (ratio of KD value with respect to HRAS to KD value with respect to KRAS) [3, 7]: A (a compound having 10 or more and less than 20 is denoted as A)
3 | CC[C@H](C)[C@@H]1NC(=O)[C@H](CC(C)C)N(C)C(=O)C[C@@H](C(=O)N(C)C)N(C)C(=O)[C@H](C2CCCC2)N(C)C(=O)C2(CCCC2)NC(=O)[C@@H]2CCCN2C(=O)[C@H](CCc2ccc(C(F)(F)F)c(Cl)c2)NC(=O)CN(C)C(=O)[C@H](Cc2ccc(C)cc2)N2C/C=C\COC[C@@H](C2=O)N(C)C(=O)CN(C)C1=O [PP0627] | 98.3 | – | – | – | –
4 | CC[C@H](C)[C@@H]1NC(=O)[C@H](CC(C)C)N(C)C(=O)C[C@@H](C(=O)N2CCOCC2)N(C)C(=O)[C@H](C2CCCC2)N(C)C(=O)C2(CCCC2)NC(=O)[C@@H]2CCCN2C(=O)[C@H](CCc2ccc(C(F)(F)F)c(Cl)c2)NC(=O)CN(C)C(=O)[C@H](Cc2ccc(C(F)(F)F)cc2)N(CCC(C)(C)C)C(=O)CN(C)C(=O)CN(C)C1=O [PP0127] ([NMeL]I[Sar][Sar][X6][Sar][hPhe(3-Cl-4-CF3)]P[Ac5c][NMeGly(cPent)][NMeD]-Morpholide; lactam N-11) | 25.3 | – | – | – | NRAS/KRAS (ratio of KD for GDP-bound NRAS wild-type to KD for KRAS) ([2]; KD ratio NRAS/KRAS): C (A compound having a KD ratio of 0.1 or more and less than 3 is denoted as C); HRAS/KRAS (ratio of KD for GDP-bound HRAS wild-type to KD for KRAS) ([3]; KD ratio HRAS/KRAS): C (A compound having a KD ratio of 0.1 or more and less than 3 is denoted as C)
5 | CC[C@H](C)[C@@H]1NC(=O)[C@H](C2CC2)N(C)C(=O)C[C@@H](C(=O)N(C)C)N(C)C(=O)[C@H](C2CCCC2)N(C)C(=O)C2(CCCC2)N(C)C(=O)[C@@H]2CCCN2C(=O)[C@H](CCc2cc(F)c(C(F)(F)F)c(F)c2)NC(=O)CN(C)C(=O)[C@H](Cc2ccc(C)cc2)N2CC/C=C\C[C@@H](C2=O)N(C)C(=O)CN(C)C1=O [PP1809] | 22.4 | – | – | – | NRAS/KRAS (ratio of KD value for NRAS to KD value for KRAS) [2, 6]: A (a compound having 10 or more and less than 20 is denoted as A); HRAS/KRAS (ratio of KD value for HRAS to KD value for KRAS) [3, 7]: B (a compound having 3 or more and less than 10 is denoted as B)
6 | CCO[C@@H]1C[C@H]2C(=O)NC3(CCC3)C(=O)N(C)[C@@H](C3CCCC3)C(=O)N(C)[C@@H](C(C)C)CC(=O)N(C)[C@@H](CC3CC3)C(=O)N[C@@H]([C@@H](C)CC)C(=O)N(C)CC(=O)N(C)[C@H]3C/C=C\CCN(C3=O)[C@@H](Cc3ccc(C(F)(F)F)cc3)C(=O)N(C)CC(=O)N[C@@H](CCc3cc(F)c(C(F)(F)F)c(F)c3)C(=O)N2C1 [PP1596] | – | – | – | – | IC50 [1, 5]: 18.1 nM
7 | CCC[C@H]1C(=O)N[C@@H]([C@@H](C)CC)C(=O)N(C)CC(=O)N(C)[C@H]2C/C=C\CCN(C2=O)[C@@H](Cc2ccc(C(F)(F)F)cc2)C(=O)N(C)CC(=O)N[C@@H](CCc2ccc3sccc3c2)C(=O)N2C[C@H](OCC)C[C@H]2C(=O)NC2(CCC2)C(=O)N(C)[C@@H](C(CC)CC)C(=O)N(C)[C@H](C(=O)N(C)C)CC(=O)N1C [PP1224] | – | 122 | A (a compound having 10 or more and less than 20 is denoted as A) | A (a compound having 10 or more and less than 20 is denoted as A) | –
8 | CCO[C@@H]1C[C@H]2C(=O)NC3(CCC3)C(=O)N(C)[C@@H](C(CC)CC)C(=O)N(C)[C@H](C(=O)N(C)C)CC(=O)N(C)[C@@H](CC(C)C)C(=O)N[C@@H]([C@@H](C)CC)C(=O)N(C)CC(=O)N(C)[C@H]3C/C=C\CCN(C3=O)[C@@H](CC3CCCCC3)C(=O)N(C)CC(=O)N[C@@H](CCc3cc(F)c(C(F)(F)F)c(F)c3)C(=O)N2C1 [PP1432] | – | 51.3 | AA (a compound having 20 or more is denoted as AA) | A (a compound having 10 or more and less than 20 is denoted as A) | –
9 | CCO[C@@H]1C[C@H]2C(=O)NC3(CCC3)C(=O)N(C)[C@@H](C(CC)CC)C(=O)N(C)[C@H](C(=O)N3CCCC3)CC(=O)N(C)[C@@H](COC)C(=O)N[C@@H]([C@@H](C)CC)C(=O)N(C)CC(=O)N(C)[C@H]3C/C=C\CCN(C3=O)[C@@H](CC3CCCCC3)C(=O)N(C)CC(=O)N[C@@H](CCc3cc(F)c(C(F)(F)F)c(F)c3)C(=O)N2C1 [PP1438] | – | 89.4 | AA (a compound having 20 or more is denoted as AA) | A (a compound having 10 or more and less than 20 is denoted as A) | –
10 | CCO[C@@H]1C[C@H]2C(=O)NC3(CCC3)C(=O)N(C)[C@@H](C(CC)CC)C(=O)N(C)[C@H](C(=O)N(C)C)CC(=O)N(C)[C@@H](CC3CC3)C(=O)N[C@@H]([C@@H](C)CC)C(=O)N(C)CC(=O)N(C)[C@H]3C/C=C\CCN(C3=O)[C@@H](CC3CCCCC3)C(=O)N(C)CC(=O)N[C@@H](CCc3cc(F)c(C(F)(F)F)c(F)c3)C(=O)N2C1 [PP1428] | – | 38.8 | AA (a compound having 20 or more is denoted as AA) | A (a compound having 10 or more and less than 20 is denoted as A) | –

The next lines start with results.

Row | IC50 [1] [nM] | IC50 [4] [nM] | SMILES | NRAS/KRAS (ratio of KD value for GDP-bound NRAS wild-type protein to KD value for KRAS) [2] | HRAS/KRAS (ratio of KD value for GDP-bound HRAS wild-type protein to KD value for KRAS) [3] | also measured
11 | 79.1 | – | CC[C@H](C)C1NC(=O)[C@H](CC(C)C)N(C)C(=O)C[C@@H](C(=O)N(C)C)N(C)C(=O)[C@H](C2CCCC2)N(C)C(=O)C2(CCCC2)NC(=O)C2CCCN2C(=O)[C@@H](CCc2ccc(C(F)(F)F)c(Cl)c2)NC(=O)CN(C)C(=O)[C@@H](Cc2ccc(C)cc2)N2CC/C=C\CCN(CC2=O)C(=O)CN(C)C1=O (some centres unmarked) [PP0618] | – | – | NRAS/KRAS (ratio of KD value with respect to GDP-bound NRAS wild-type protein to KD value with respect to KRAS) ([2]; KD ratio NRAS/KRAS): C (A compound having a KD ratio of 0.1 or more and less than 3 is denoted as C); HRAS/KRAS (ratio of KD value with respect to GDP-bound HRAS wild-type protein to KD value with respect to KRAS) ([3]; KD ratio HRAS/KRAS): C (A compound having a KD ratio of 0.1 or more and less than 3 is denoted as C)
12 | 6.7 | – | CCCN(C)C(=O)[C@@H]1CC(=O)N(C)[C@@H](COC)C(=O)N[C@@H]([C@@H](C)CC)C(=O)N(C)CC(=O)N(C)[C@H]2C/C=C\CCN(C2=O)[C@@H](Cc2ccc(C(F)(F)F)cc2)C(=O)N(C)CC(=O)N[C@@H](CCc2cc(F)c(C(F)(F)F)c(F)c2)C(=O)N2C[C@H](OCC)C[C@H]2C(=O)NC2(CCC2)C(=O)N(C)[C@@H](C2CCCC2)C(=O)N1C [PP1706] | – | – | NRAS/KRAS (ratio of KD value for NRAS to KD value for KRAS) [2, 6]: A (a compound having 10 or more and less than 20 is denoted as A); HRAS/KRAS (ratio of KD value for HRAS to KD value for KRAS) [3, 7]: A (a compound having 10 or more and less than 20 is denoted as A)
13 | 3.4 | – | C#CC[C@H]1C(=O)N[C@@H]([C@@H](C)CC)C(=O)N(C)CC(=O)N(C)[C@H]2C/C=C\CCN(C2=O)[C@@H](Cc2ccc(C(F)(F)F)cc2)C(=O)N(C)CC(=O)N[C@@H](CCc2ccc(C(F)(F)F)c(OC)c2)C(=O)N2C[C@H](OCC)C[C@H]2C(=O)NC2(CC(C)(C)C2)C(=O)N(C)[C@@H](C2CCCC2)C(=O)N(C)[C@H](C(=O)N(C)C)CC(=O)N1C [PP1677] | – | – | NRAS/KRAS (ratio of KD value for NRAS to KD value for KRAS) [2, 6]: A (a compound having 10 or more and less than 20 is denoted as A); HRAS/KRAS (ratio of KD value for HRAS to KD value for KRAS) [3, 7]: A (a compound having 10 or more and less than 20 is denoted as A)
14 | 10.1 | – | CC[C@H](C)[C@@H]1NC(=O)[C@H](CC(C)C)N(C)C(=O)C[C@@H](C(=O)N(C)C)N(C)C(=O)[C@H](C2CCCC2)N(C)C(=O)C2(CC(C)(C)C2)NC(=O)[C@@H]2C[C@@H](C)CN2C(=O)[C@H](CCc2ccc(C(F)(F)F)c(OC)c2)NC(=O)CN(C)C(=O)[C@H](Cc2ccc(C)cc2)N2CC/C=C\C[C@@H](C2=O)N(C)C(=O)CN(C)C1=O [PP1908] | – | – | NRAS/KRAS (ratio of KD value for NRAS to KD value for KRAS) [2, 6]: A (a compound having 10 or more and less than 20 is denoted as A); HRAS/KRAS (ratio of KD value for HRAS to KD value for KRAS) [3, 7]: B (a compound having 3 or more and less than 10 is denoted as B)
15 | – | 305 | CCO[C@@H]1C[C@H]2C(=O)NC3(CCC3)C(=O)N(C)[C@@H](C3CCCC3)C(=O)N(C)[C@H](C(=O)N(C)C)CC(=O)N(C)[C@@H](CC3CCCC3)C(=O)N[C@@H]([C@@H](C)CC)C(=O)N(C)CC(=O)N(C)[C@H]3C/C=C\CCN(C3=O)[C@@H](Cc3ccc(F)cc3)C(=O)N(C)CC(=O)N[C@@H](CCc3ccc4sccc4c3)C(=O)N2C1 [PP1390] | A (a compound having 10 or more and less than 20 is denoted as A) | A (a compound having 10 or more and less than 20 is denoted as A) | –
